# Literature values in US20020179884A1, “Disinfecting and deodorizing agent” (priority 2000, published 2002).
# Conditions: 25° C.
row,Compound,pKa25
1,O=C([O-])O.[Na+] [sodium hydrogencarbonate],10.33
2,O=BOB(O)OB(O)OB=O [sodium tetraborate],9.24
3,O=P(O)(O)OP(=O)(O)OP(=O)(O)O [sodium tripolyphosphate],9.70
4,O=P([O-])([O-])OP(=O)([O-])O.[Na+].[Na+].[Na+] [trisodium pyrophosphate],8.95
